Results: ChEMBL document CHEMBL2321756, “From a cytotoxic agent to the discovery of a novel antimalarial agent” (Bioorg Med Chem Lett, 2013)

What was measured:
[1] = tested on: Plasmodium falciparum; assay: Antimalarial activity against Plasmodium falciparum C235 containing mdr1 transporter gene assessed as growth inhibition after 72 hrs by SYBR Green 1-based fluorescence assay; type: functional, organism-based; settings: C235, MDR1, 72 h
[2] = tested on: Erythrocyte; assay: Reduction of glutathione level in Wistar rat RBC at 25 ug/mL measured at 120 mins relative to untreated control; type: functional; set-up: scale not given: the % may be the effect or the level left
[3] = tested on: Erythrocyte; assay: Reduction of glutathione level in Wistar rat RBC at 25 ug/mL measured at 15 mins relative to untreated control; type: functional; set-up: scale not given: the % may be the effect or the level left
[4] = Apparent permeability across apical to basolateral side in human Caco2/TC7 cells at 50 uM after 2 hrs; type: ADME, cell-based; settings: Caco-2
[5] = tested on: Erythrocyte; assay: Reduction of glutathione level in Wistar rat RBC at 25 ug/mL measured at 90 mins relative to untreated control; type: functional; set-up: scale not given: the % may be the effect or the level left
[6] = tested on: Plasmodium falciparum; assay: Antimalarial activity against Plasmodium falciparum D6 assessed as growth inhibition after 72 hrs by SYBR Green 1-based fluorescence assay; type: functional, organism-based; settings: D6, 72 h
[7] = Drug uptake in Wistar rat RBC at 25 ug/mL; type: ADME, cell-based; settings: erythrocyte
[8] = tested on: Erythrocyte; assay: Reduction of glutathione level in Wistar rat RBC at 25 ug/mL measured at 60 mins relative to untreated control; type: functional; set-up: scale not given: the % may be the effect or the level left
[9] = Drug uptake in Wistar rat RBC at 25 ug/mL up to 2 hrs; type: ADME, cell-based; settings: erythrocyte
[10] = Metabolic stability in human Caco2/TC7 cells at 50 uM up to 2 hrs; type: ADME, cell-based; settings: caco-2, 2 h
[11] = tested on: Erythrocyte; assay: Reduction of glutathione level in Wistar rat RBC at 25 ug/mL measured at 30 mins relative to untreated control; type: functional; set-up: scale not given: the % may be the effect or the level left
[12] = tested on: Plasmodium falciparum; assay: Selectivity ratio of IC50 for Plasmodium falciparum C235 to IC50 for Plasmodium falciparum D6; type: functional
[13] = tested on: Erythrocyte; assay: Reduction of glutathione level in Wistar rat RBC at 25 ug/mL measured at 5 mins relative to untreated control; type: functional; set-up: scale not given: the % may be the effect or the level left
[14] = Apparent permeability across apical to basolateral side in human Caco2/TC7 cells after 2 hrs; type: ADME, cell-based; settings: Caco-2

Papp A→B at 2 h, 50 µM [4] [×10⁻⁶ cm/s] | Drug uptake [7] [%] | Drug uptake [9] [%] | Stability [10] | Papp A→B at 2 h [14] [×10⁻⁶ cm/s] | Structure (SMILES) | IC50 [1] [nM] | Activity [2] [%] | Activity [3] [%] | Activity [5] [%] | IC50 [6] [nM] | Activity [8] [%] | Activity [11] [%] | Ratio IC50 [12] | Activity [13] [%]
 |  |  |  |  | O[C@@H](c1cc(C(F)(F)F)nc2c(C(F)(F)F)cccc12)[C@H]1CCCCN1 [(S,R)-MEFLOQUINE] | 50 |  |  |  |  |  |  |  | 
1.2 | 75 | 80 | Stable |  | Cl.O=C1/C(=C/c2ccc(Cl)cc2)CN(C(=O)c2ccc(OCCN3CCOCC3)cc2)C/C1=C\c1ccc(Cl)cc1 | 1970 | 10.9 | 12.3 | 7.51 | 600 | 8.95 | 12.9 | 3.3 | 12.6
 |  |  |  | 29.9 | COCCc1ccc(OCC(O)CNC(C)C)cc1 (stereo not given) [METOPROLOL] |  |  |  |  |  |  |  |  | 
